Test results taken from ChEMBL document CHEMBL3112450, “Synthesis and in vitro antitumor evaluation of primary amine substituted quinazoline linked benzimidazole” (Bioorg Med Chem Lett, 2014).

Assays:
Assay type in all cases: functional
SNB-19 [1] = test: Cytotoxicity against human SNB19 cells after 48 hrs by SRB assay; conditions: SNB-19, 48 h
SF-295 = test: Cytotoxicity against human SF295 cells assessed as cell growth at 10^-8 M after 48 hrs by SRB assay; conditions: SF-295, 48 h, read-out: Activity
SK-OV-3 [2] = test: Cytotoxicity against human SKOV3 cells after 48 hrs by SRB assay; conditions: SK-OV-3, 48 h
HL-60(TB) [3] = test: Cytotoxicity against human HL-60(TB) cells assessed as cell growth at 10^-6 M after 48 hrs by SRB assay; conditions: HL-60, 48 h, read-out: Activity
SR [4] = test: Cytotoxicity against human SR cells assessed as cell growth at 10^-7 M after 48 hrs by SRB assay; conditions: read-out: Activity
COLO 205 = test: Cytotoxicity against human COLO205 cells assessed as cell growth at 10^-4 M after 48 hrs by SRB assay; conditions: COLO 205, 48 h, read-out: Activity
NCI-H23 = test: Cytotoxicity against human NCI-H23 cells assessed as cell growth at 10^-8 M after 48 hrs by SRB assay; conditions: NCI-H23, 48 h, read-out: Activity
T47D [5] = test: Cytotoxicity against human T47D cells after 48 hrs by SRB assay
MDA-MB-468 = test: Cytotoxicity against human MDA-MB-468 cells assessed as cell growth at 10^-6 M after 48 hrs by SRB assay; conditions: MDA-MB-468, 48 h, read-out: Activity
A498 = test: Cytotoxicity against human A498 cells assessed as cell growth at 10^-4 M after 48 hrs by SRB assay; conditions: A498, 48 h, read-out: Activity
T47D [6] = test: Cytotoxicity against human T47D cells assessed as cell growth at 10^-8 M after 48 hrs by SRB assay; conditions: read-out: Activity
SK-OV-3 [7] = test: Cytotoxicity against human SKOV3 cells assessed as cell growth at 10^-8 M after 48 hrs by SRB assay; conditions: SK-OV-3, 48 h, read-out: Activity
MDA-MB-231 [8] = test: Cytotoxicity against human MDA-MB-231 cells assessed as cell growth at 10^-8 M after 48 hrs by SRB assay; conditions: MDA-MB-231, 48 h, read-out: Activity
MDA-MB-231 [9] = test: Cytotoxicity against human MDA-MB-231 cells after 48 hrs by SRB assay; conditions: MDA-MB-231, 48 h
OVCAR-8 [10] = test: Cytotoxicity against human OVCAR8 cells assessed as cell growth at 10^-7 M after 48 hrs by SRB assay; conditions: OVCAR-8, 48 h, read-out: Activity
SNB-19 [11] = test: Cytotoxicity against human SNB19 cells assessed as cell growth at 10^-7 M after 48 hrs by SRB assay; conditions: SNB-19, 48 h, read-out: Activity
ACHN = test: Cytotoxicity against human ACHN cells after 48 hrs by SRB assay
NCI-H460 = test: Cytotoxicity against human NCI-H460 cells assessed as cell growth at 10^-8 M after 48 hrs by SRB assay; conditions: NCI-H460, 48 h, read-out: Activity
KM12 = test: Cytotoxicity against human KM12 cells after 48 hrs by SRB assay; conditions: KM12, 48 h
SK-OV-3 [12] = test: Cytotoxicity against human SKOV3 cells assessed as cell growth at 10^-6 M after 48 hrs by SRB assay; conditions: SK-OV-3, 48 h, read-out: Activity
NCI-H322M [13] = test: Cytotoxicity against human NCI-H322M cells assessed as cell growth at 10^-6 M after 48 hrs by SRB assay; conditions: read-out: Activity
HCT-15 = test: Cytotoxicity against human HCT15 cells assessed as cell growth at 10^-7 M after 48 hrs by SRB assay; conditions: HCT-15, 48 h, read-out: Activity
MDA-MB-231 [14] = test: Cytotoxicity against human MDA-MB-231 cells assessed as cell growth at 10^-4 M after 48 hrs by SRB assay; conditions: MDA-MB-231, 48 h, read-out: Activity
SK-MEL-2 = test: Cytotoxicity against human SK-MEL-2 cells assessed as cell growth at 10^-8 M after 48 hrs by SRB assay; conditions: SK-MEL-2, 48 h, read-out: Activity
DU-145 = test: Cytotoxicity against human DU145 cells assessed as cell growth at 10^-8 M after 48 hrs by SRB assay; conditions: DU-145, 48 h, read-out: Activity
HL-60(TB) [15] = test: Cytotoxicity against human HL-60(TB) cells assessed as cell growth at 10^-7 M after 48 hrs by SRB assay; conditions: HL-60, 48 h, read-out: Activity
HOP-62 = test: Cytotoxicity against human HOP62 cells assessed as cell growth at 10^-8 M after 48 hrs by SRB assay; conditions: HOP-62, 48 h, read-out: Activity
[16] = Cytotoxicity against human NCI-ADR-RES cells assessed as cell growth at 10^-6 M after 48 hrs by SRB assay; conditions: read-out: Activity
SR [17] = test: Cytotoxicity against human SR cells assessed as cell growth at 10^-4 M after 48 hrs by SRB assay; conditions: read-out: Activity
[18] = Cytotoxicity against human OVCAR4 cells assessed as cell growth at 10^-8 M after 48 hrs by SRB assay; conditions: OVCAR-4, 48 h, read-out: Activity
SN12C = test: Cytotoxicity against human SN12C cells assessed as cell growth at 10^-4 M after 48 hrs by SRB assay; conditions: read-out: Activity
OVCAR-8 [19] = test: Cytotoxicity against human OVCAR8 cells assessed as cell growth at 10^-8 M after 48 hrs by SRB assay; conditions: OVCAR-8, 48 h, read-out: Activity
[20] = Cytotoxicity against human OVCAR5 cells after 48 hrs by SRB assay; conditions: OVCAR-5, 48 h
K562 = test: Cytotoxicity against human K562 cells assessed as cell growth at 10^-7 M after 48 hrs by SRB assay; conditions: K562, 48 h, read-out: Activity
BT-549 = test: Cytotoxicity against human BT549 cells assessed as cell growth at 10^-7 M after 48 hrs by SRB assay; conditions: BT-549, 48 h, read-out: Activity
PC-3 = test: Cytotoxicity against human PC3 cells after 48 hrs by SRB assay; conditions: PC-3, 48 h
RXF 393 = test: Cytotoxicity against human RXF393 cells assessed as cell growth at 10^-7 M after 48 hrs by SRB assay; conditions: RXF 393, 48 h, read-out: Activity
NCI-H322M [21] = test: Cytotoxicity against human NCI-H322M cells assessed as cell growth at 10^-4 M after 48 hrs by SRB assay; conditions: read-out: Activity
UACC-62 = test: Cytotoxicity against human UACC62 cells assessed as cell growth at 10^-4 M after 48 hrs by SRB assay; conditions: UACC-62, 48 h, read-out: Activity
[22] = read-out: LC50 (the source's name)

With C=CCn1c(C)nc2ccc(Nc3nc(Nc4ccc(F)cc4)nc4ccccc34)cc21 the GI50 (SNB-19 [1]) was 9000 nM, the TGI (SNB-19 [1]) was 23800 nM and the CC50 (SNB-19 [1]; [22]) was 58600 nM. The growth at 0.01 µM (SF-295) was 84%, the GI50 (SK-OV-3 [2]) was 1930 nM and the TGI (SK-OV-3 [2]) was 3740 nM. It also gave a growth at 1 µM (HL-60(TB) [3]) of 104%, a growth at 0.1 µM (SR [4]) of 98% and a growth at 100 µM (COLO 205) of -28%. For the same compound, the growth at 0.01 µM (NCI-H23) was 94%, the GI50 (T47D [5]) was 1700 nM and the LC50 (T47D [5]) was > 100000 nM. For the same compound, the TGI (T47D [5]) was 4230 nM, the growth at 1 µM (MDA-MB-468) was 64% and the growth at 100 µM (A498) was -68%. The growth at 0.01 µM (T47D [6]) was 85%, the growth at 0.01 µM (SK-OV-3 [7]) was 96% and the growth at 0.01 µM (MDA-MB-231 [8]) was 99%. For the same compound, the GI50 (MDA-MB-231 [9]) was 2370 nM, the LC50 (MDA-MB-231 [9]) was > 100000 nM and the TGI (MDA-MB-231 [9]) was 8240 nM. The growth at 0.1 µM (OVCAR-8 [10]) was 94%, the growth at 0.1 µM (SNB-19 [11]) was 93% and the GI50 (ACHN) was 1990 nM. The LC50 (ACHN) was 9330 nM, the TGI (ACHN) was 4310 nM and the growth at 0.01 µM (NCI-H460) was 100%. For the same compound, the GI50 (KM12) was 4070 nM, the LC50 (concentration killing 50% of cells) (KM12) was 51800 nM and the TGI (KM12) was 16400 nM. It also gave a growth at 1 µM (SK-OV-3 [12]) of 100%, a growth at 1 µM (NCI-H322M [13]) of 85% and a growth at 0.1 µM (HCT-15) of 101%. The growth at 100 µM (MDA-MB-231 [14]) was -37%, the growth at 0.01 µM (SK-MEL-2) was 98% and the growth at 0.01 µM (DU-145) was 100%. The growth at 0.1 µM (HL-60(TB) [15]) was 100%, the growth at 0.01 µM (HOP-62) was 93% and the growth at 1 µM [16] was 96%. It also gave a growth at 100 µM (SR [17]) of -22%, a growth at 0.01 µM [18] of 96% and a growth at 100 µM (SN12C) of -49%. It also gave a growth at 0.01 µM (OVCAR-8 [19]) of 98%, a GI50 [20] of 11600 nM and an LC50 [20] of 61200 nM. It also gave a TGI [20] of 26600 nM, a growth at 0.1 µM (K562) of 103% and a growth at 0.1 µM (BT-549) of 94%. The GI50 (PC-3) was 3140 nM, the TGI (PC-3) was 14700 nM and the CC50 (PC-3; [22]) was 49700 nM. It also gave a growth at 0.1 µM (RXF 393) of 83%, a growth at 100 µM (NCI-H322M [21]) of -82% and a growth at 100 µM (UACC-62) of -70%.

Work on C=CCn1c(C)nc2cc(Nc3nc(Nc4ccc5nc(C)n(CC=C)c5c4)c4ccccc4n3)ccc21 yielded a GI50 (SNB-19 [1]) of 1080 nM, a TGI (SNB-19 [1]) of 2620 nM and a growth at 0.01 µM (SF-295) of 90%. For the same compound, the GI50 (SK-OV-3 [2]) was 1900 nM, the TGI (SK-OV-3 [2]) was 3770 nM and the growth at 1 µM (HL-60(TB) [3]) was 90%. For the same compound, the growth at 0.1 µM (SR [4]) was 89%, the growth at 100 µM (COLO 205) was -6% and the growth at 0.01 µM (NCI-H23) was 95%. The GI50 (T47D [5]) was 280 nM, the LC50 (T47D [5]) was > 100000 nM and the TGI (T47D [5]) was 909 nM. It also gave a growth at 1 µM (MDA-MB-468) of -28%, a growth at 100 µM (A498) of -85% and a growth at 0.01 µM (T47D [6]) of 92%. The growth at 0.01 µM (SK-OV-3 [7]) was 95%, the growth at 0.01 µM (MDA-MB-231 [8]) was 111% and the GI50 (MDA-MB-231 [9]) was 205 nM. For the same compound, the TGI (MDA-MB-231 [9]) was 417 nM, the growth at 0.1 µM (OVCAR-8 [10]) was 101% and the growth at 0.1 µM (SNB-19 [11]) was 88%. The GI50 (ACHN) was 610 nM, the TGI (ACHN) was 1830 nM and the growth at 0.01 µM (NCI-H460) was 102%. For the same compound, the GI50 (KM12) was 223 nM, the LC50 (concentration killing 50% of cells) (KM12) was 1460 nM and the TGI (KM12) was 513 nM. It also gave a growth at 1 µM (SK-OV-3 [12]) of 97%, a growth at 1 µM (NCI-H322M [13]) of 43% and a growth at 0.1 µM (HCT-15) of 96%. For the same compound, the growth at 100 µM (MDA-MB-231 [14]) was -46%, the growth at 0.01 µM (SK-MEL-2) was 96% and the growth at 0.01 µM (DU-145) was 99%. It also gave a growth at 0.1 µM (HL-60(TB) [15]) of 96%, a growth at 0.01 µM (HOP-62) of 98% and a growth at 1 µM [16] of 85%. The growth at 100 µM (SR [17]) was 2%, the growth at 0.01 µM [18] was 93% and the growth at 100 µM (SN12C) was -22%. The growth at 0.01 µM (OVCAR-8 [19]) was 100%, the GI50 [20] was 400 nM and the TGI [20] was 1490 nM. For the same compound, the growth at 0.1 µM (K562) was 99%, the growth at 0.1 µM (BT-549) was 101% and the GI50 (PC-3) was 305 nM. It also gave a TGI (PC-3) of 1020 nM, a growth at 0.1 µM (RXF 393) of 88% and a growth at 100 µM (NCI-H322M [21]) of -70%. For the same compound, the growth at 100 µM (UACC-62) was -47%.
